Test results from ChEMBL document CHEMBL5620362 (Eur J Med Chem, 2023).
Activity calls are given as the source filed them. The calls are words filed in the database; no cut-off is given here.

Legend:
[1] = Half life in ICR mouse at 10 mg/kg, po; type: ADME, organism-based; conditions: in vivo
HPAF-II [2] = assay: Downregulation of MEK phosphorylation level in human HPAF-II cells harboring siROR-gamma at 0.1 uM by Western blot analysis; type: functional, cell-based
HPAF-II [3] = assay: Induction of apoptosis in human HPAF-II cells assessed as late apoptotic cells at 0.01 uM incubated for 48 hrs by Annexin V-FITC/PI staining based flow cytometry (reference value: 1.28 %); type: functional
HPAF-II [4] = assay: Induction of apoptosis in human HPAF-II cells assessed as early apoptotic cells at 0.01 uM incubated for 48 hrs by Annexin V-FITC/PI staining based flow cytometry (reference value: 0.90 %); type: functional
HPAF-II [5] = assay: Antitumor activity against human HPAF-II cells xenografted in nude Balb/cA mouse assessed as tumor growth inhibition at 15 mg/kg, ip qd measured for 12 days relative to control; type: functional; set-up: scale not given: the % may be the effect or the level left; conditions: time 12 day
A549 = assay: Anticancer activity against human A549 cells incubated for 72 hrs; type: functional, cell-based
NCI-H23 [6] = assay: Induction of apoptosis in human NCI-H23 cells assessed as necrotic cells at 0.01 uM incubated for 48 hrs by Annexin V-FITC/PI staining based flow cytometry (reference value: 0.78 %); type: functional
[7] = AUC (infinity) in ICR mouse at 10 mg/kg, po; type: ADME, organism-based; conditions: in vivo
NCI-H23 [8] = assay: Induction of apoptosis in human NCI-H23 cells assessed as early apoptotic cells at 0.1 uM incubated for 48 hrs by Annexin V-FITC/PI staining based flow cytometry (reference value: 4.17 %); type: functional
HPAF-II [9] = assay: Downregulation of phosphorylated AKT expression in human HPAF-II cells at 0.1 to 1 uM incubated for 48 hrs by Western blot analysis; type: functional, cell-based; conditions: dose 0.1-1 µM
HPAF-II [10] = assay: Cytotoxicity against human HPAF-II cells harboring siROR-gamma assessed as decrease in cell viability at 0.1 uM incubated for 72 hrs by SRB assay; type: functional, cell-based
HPAF-II [11] = assay: Induction of apoptosis in human HPAF-II cells assessed as late apoptotic cells at 1 uM incubated for 48 hrs by Annexin V-FITC/PI staining based flow cytometry (reference value: 1.28 %); type: functional
MV4-11 = assay: Anticancer activity against human MV4-11 cells incubated for 72 hrs; type: functional, cell-based
MIA PaCa-2 [12] = assay: Anticancer activity against human MIA PaCa-2 cells incubated for 72 hrs; type: functional, cell-based
NCI-H358 = assay: Induction of apoptosis in human NCI-H358 cells 1 uM incubated for 48 hrs by Annexin V-FITC/PI staining based flow cytometry; type: functional, cell-based
HPAF-II [13] = assay: Induction of apoptosis in human HPAF-II cells assessed as early apoptotic cells at 0.1 uM incubated for 48 hrs by Annexin V-FITC/PI staining based flow cytometry (reference value: 0.90 %); type: functional
NCI-H23 [14] = assay: Anticancer activity against human NCI-H23 cells incubated for 72 hrs; type: functional, cell-based
HPAF-II [15] = assay: Induction of apoptosis in human HPAF-II cells assessed as necrotic cells at 10 uM incubated for 48 hrs by Annexin V-FITC/PI staining based flow cytometry (reference value: 8.09 %); type: functional
HPAF-II [16] = assay: Induction of apoptosis in human HPAF-II cells harboring siROR-gamma at 0.1 uM incubated for 24 hrs by Annexin V-FITC/PI staining based flow cytometry; type: functional, cell-based
HPAF-II [17] = assay: Induction of apoptosis in human HPAF-II cells assessed as viable cells at 10 uM incubated for 48 hrs by Annexin V-FITC/PI staining based flow cytometry (reference value: 89.73 %); type: functional; conditions: read-out: Activity
MIA PaCa-2 [18] = assay: Inhibition of colony formation in human MIA PaCa-2 cells harboring siROR-gamma 0.1 uM incubated for 6 to 7 days by crystal violet staining based analysis; type: functional, cell-based; conditions: time 6-7 day
MIA PaCa-2 [19] = assay: Cytotoxicity against human MIA PaCa-2 cells harboring siROR-gamma assessed as decrease in cell viability at 0.1 uM incubated for 72 hrs by SRB assay; type: functional, cell-based
HPAF-II [20] = assay: Induction of apoptosis in human HPAF-II cells assessed as late apoptotic cells at 0.1 uM incubated for 48 hrs by Annexin V-FITC/PI staining based flow cytometry (reference value: 1.28 %); type: functional
HPAF-II [21] = assay: Downregulation of phosphorylated MEK expression in human HPAF-II cells at 0.1 to 1 uM incubated for 48 hrs by Western blot analysis; type: functional, cell-based; conditions: dose 0.1-1 µM
HPAF-II [22] = assay: Downregulation of AKT phosphorylation level in human HPAF-II cells harboring siROR-gamma at 0.1 uM by Western blot analysis; type: functional, cell-based
[23] = molecular target: T1, Nuclear receptor ROR-gamma (Homo sapiens, UniProt P51449); assay: Binding affinity to CM5 chip-immobilized recombinant ROR-gamma LBD (unknown origin) assessed as dissociation constant by SPR analysis
T1 sequence (P51449 whole entry): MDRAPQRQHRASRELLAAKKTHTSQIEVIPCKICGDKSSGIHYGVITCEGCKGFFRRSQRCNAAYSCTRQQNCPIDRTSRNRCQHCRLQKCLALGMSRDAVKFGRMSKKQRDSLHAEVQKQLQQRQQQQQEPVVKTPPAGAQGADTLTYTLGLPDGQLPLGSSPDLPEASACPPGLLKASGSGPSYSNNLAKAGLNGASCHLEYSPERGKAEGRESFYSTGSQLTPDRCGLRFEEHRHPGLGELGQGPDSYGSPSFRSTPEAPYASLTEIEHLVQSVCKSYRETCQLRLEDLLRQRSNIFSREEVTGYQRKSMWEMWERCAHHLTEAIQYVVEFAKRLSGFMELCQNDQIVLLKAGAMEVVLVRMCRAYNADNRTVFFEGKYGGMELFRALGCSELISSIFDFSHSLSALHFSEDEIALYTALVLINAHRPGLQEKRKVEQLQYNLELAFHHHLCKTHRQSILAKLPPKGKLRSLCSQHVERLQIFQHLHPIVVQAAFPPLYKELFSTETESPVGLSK

HPAF-II [24] = assay: Antitumor activity against human HPAF-II cells measured after 72 hrs; type: functional, cell-based
HPAF-II [25] = assay: Induction of apoptosis in human HPAF-II cells assessed as reduction in MCL-1 level at 0.1 to 1 uM incubated for 48 hrs by Western blot analysis; type: functional, cell-based; conditions: dose 0.1-1 µM
[26] = Volume of distribution at steady state in ICR mouse at 3 mg/kg, iv; type: ADME, organism-based; conditions: in vivo, read-out: Vdss
SW1573 = assay: Anticancer activity against human SW1573 cells incubated for 72 hrs; type: functional, cell-based
BXPC-3 = assay: Anticancer activity against human BXPC-3 cells incubated for 72 hrs; type: functional, cell-based
NCI-H23 [27] = assay: Induction of apoptosis in human NCI-H23 cells assessed as late apoptotic cells at 0.1 uM incubated for 48 hrs by Annexin V-FITC/PI staining based flow cytometry (reference value: 2.89 %); type: functional
HPAF-II [28] = assay: Induction of apoptosis in human HPAF-II cells assessed as viable cells at 1 uM incubated for 48 hrs by Annexin V-FITC/PI staining based flow cytometry (reference value: 89.73 %); type: functional; conditions: read-out: Activity
CFPAC-1 = assay: Anticancer activity against human CFPAC-1 cells incubated for 72 hrs; type: functional, cell-based

For `C=C(C)[C@@H]1CC[C@]2(C(=O)NCCCN(C)C)CC[C@]3(C)[C@H](CC[C@@H]4[C@@]5(C)CC[C@H](O)C(C)(C)[C@@H]5CC[C@]43C)[C@@H]12`, the half-life [1] was 11.9 h, the Activity (HPAF-II [2]) was “Active” and the Activity (HPAF-II [3]) was 4.48%. For the same compound, the Activity (HPAF-II [4]) was 5.34%, the Activity (HPAF-II [5]) was 76% and the Activity (A549) was “Active”. It also gave an Activity (NCI-H23 [6]) of 2.81%, an AUC(0-inf) [7] of 2050 ng·h/mL and an Activity (NCI-H23 [8]) of 3.45%. The Activity (HPAF-II [9]) was “Active”, the Activity (HPAF-II [10]) was “inactive” and the Activity (HPAF-II [11]) was 20.27%. For the same compound, the Activity (MV4-11) was “Active”, the Activity (MIA PaCa-2 [12]) was “Active” and the Activity (NCI-H358) was “Active”. For the same compound, the Activity (HPAF-II [13]) was 23.73%, the Activity (NCI-H23 [14]) was “Active” and the Activity (HPAF-II [15]) was 3.33%. For the same compound, the Activity (HPAF-II [16]) was “inactive”, the viability at 10 µM (HPAF-II [17]) was 5.04% and the inhibition (MIA PaCa-2 [18]) was “inactive”. For the same compound, the Activity (MIA PaCa-2 [19]) was “inactive”, the Activity (HPAF-II [20]) was 12.13% and the Activity (HPAF-II [21]) was “Active”. The Activity (HPAF-II [22]) was “Active”, the Kd [23] was 180 nM and the IC50 (HPAF-II [24]) was 90 nM. For the same compound, the Activity (HPAF-II [25]) was “Active”, the Vd [26] was 5.21 L/kg and the Activity (SW1573) was “Active”. The Activity (BXPC-3) was “Active”, the Activity (NCI-H23 [27]) was 12.32% and the viability at 1 µM (HPAF-II [28]) was 38.2%. The Activity (CFPAC-1) was “Active”.
